Data as given in patent US12516056B2, “Compounds for inhibition of janus kinase 1” (MANKIND PHARMA LTD., priority 2019, dated 2026).

Tests used:
Recombinant JAK3 = target: T1, Recombinant JAK3 (Homo sapiens, UniProt P52333); test: JAK biochemical assay (LANCE Ultra TR-FRET), JAK3; settings: recombinant JAK3, TR-FRET; read-out: Biochemical Assay (μM) JAK3
T1 construct: purchased Carna Biosciences
T1 sequence (P52333 1-1124): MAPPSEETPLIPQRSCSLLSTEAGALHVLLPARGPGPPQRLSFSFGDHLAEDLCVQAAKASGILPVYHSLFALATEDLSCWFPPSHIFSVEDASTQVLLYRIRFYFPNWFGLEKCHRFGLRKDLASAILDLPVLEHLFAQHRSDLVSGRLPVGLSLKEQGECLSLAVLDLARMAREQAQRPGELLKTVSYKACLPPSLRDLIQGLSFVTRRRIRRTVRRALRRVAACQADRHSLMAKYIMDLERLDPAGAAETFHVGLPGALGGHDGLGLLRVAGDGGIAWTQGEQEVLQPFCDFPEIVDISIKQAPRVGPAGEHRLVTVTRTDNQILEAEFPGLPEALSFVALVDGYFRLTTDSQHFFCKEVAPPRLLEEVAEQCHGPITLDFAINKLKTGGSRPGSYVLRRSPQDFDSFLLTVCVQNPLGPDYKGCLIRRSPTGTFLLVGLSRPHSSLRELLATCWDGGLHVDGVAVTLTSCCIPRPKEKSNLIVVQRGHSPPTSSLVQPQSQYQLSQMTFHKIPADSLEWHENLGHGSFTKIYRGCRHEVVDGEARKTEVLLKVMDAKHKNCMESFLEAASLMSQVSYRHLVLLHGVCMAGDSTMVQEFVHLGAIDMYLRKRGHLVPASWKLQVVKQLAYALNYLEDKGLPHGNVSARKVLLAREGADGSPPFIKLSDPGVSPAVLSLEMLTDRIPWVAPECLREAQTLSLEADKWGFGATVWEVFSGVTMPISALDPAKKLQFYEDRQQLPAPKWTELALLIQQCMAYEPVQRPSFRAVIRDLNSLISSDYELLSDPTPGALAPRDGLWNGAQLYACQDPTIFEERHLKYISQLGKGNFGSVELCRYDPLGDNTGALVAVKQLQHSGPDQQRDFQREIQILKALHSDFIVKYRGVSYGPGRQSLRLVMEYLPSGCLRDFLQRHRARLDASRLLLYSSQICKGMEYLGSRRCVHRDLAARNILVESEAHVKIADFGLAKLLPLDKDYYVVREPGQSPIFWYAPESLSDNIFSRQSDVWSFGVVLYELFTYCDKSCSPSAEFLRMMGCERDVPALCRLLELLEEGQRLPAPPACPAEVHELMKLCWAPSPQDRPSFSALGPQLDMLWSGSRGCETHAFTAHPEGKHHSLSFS
Outline: (§1)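 Kinase reactions ran in buffer of 50 mM HEPES pH 7.5 with 1 mM EGTA, 10 mM MgCl2, 2 mM DTT and 0.01% Tween-20, using recombinant enzyme. Phosphorylated ULight substrate was detected by TR-FRET, and compound effect expressed as % inhibition against vehicle.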

Recombinant TYK2 = target: T2, Recombinant TYK2 (Homo sapiens, UniProt P29597); test: JAK biochemical assay (LANCE Ultra TR-FRET), TYK2; settings: recombinant TYK2, TR-FRET; read-out: Biochemical Assay (μM) TYK2
T2 construct: purchased Carna Biosciences
Outline: as §1

[1] = test system: STAT3 phosphorylation by IL-6 in TF-1 cells; test: JAK cellular assay: STAT3 phosphorylation by IL-6 in TF-1 cells (HTRF); type: cell-based; settings: Homo sapiens, TF-1, TF-1 cells, IL-6 30 ng/ml, pSTAT3 HTRF; read-out: Cell Based Assay (μM) TF-1/IL-6/pSTAT3
Outline: (§2)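 Phospho-STAT3 (IL-6, 30 ng/ml) and phospho-STAT5 (GMCSF, 5 ng/ml) read by HTRF in lysates after 20 min cytokine exposure, minus unstimulated-cell background. Cells were serum-starved overnight, plated at 120,000/well, given compound 30 min at 37 °C beforehand; DMSO 0.2% final.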

[2] = test system: STAT5 phosphorylation by GMCSF in TF-1 cells; test: JAK cellular assay: STAT5 phosphorylation by GMCSF in TF-1 cells (HTRF); type: cell-based; settings: Homo sapiens; TF-1 cells, GMCSF 5 ng/ml, pSTAT5 HTRF; read-out: Cell Based Assay (μM) TF-1/GMCSF/pSTAT5
Outline: as §2

Recombinant JAK1 = target: T3, Recombinant JAK1 (Homo sapiens, UniProt P23458); test: JAK biochemical assay (LANCE Ultra TR-FRET), JAK1; settings: recombinant JAK1, TR-FRET; read-out: Biochemical Assay (μM) JAK1
T3 construct: purchased Carna Biosciences
Outline: as §1

Recombinant JAK2 = target: T4, Recombinant JAK2 (Homo sapiens, UniProt O60674); test: JAK biochemical assay (LANCE Ultra TR-FRET), JAK2; settings: recombinant JAK2, TR-FRET; read-out: Biochemical Assay (μM) JAK2
T4 construct: purchased Carna Biosciences
Outline: as §1

T4 sequence (O60674 whole entry): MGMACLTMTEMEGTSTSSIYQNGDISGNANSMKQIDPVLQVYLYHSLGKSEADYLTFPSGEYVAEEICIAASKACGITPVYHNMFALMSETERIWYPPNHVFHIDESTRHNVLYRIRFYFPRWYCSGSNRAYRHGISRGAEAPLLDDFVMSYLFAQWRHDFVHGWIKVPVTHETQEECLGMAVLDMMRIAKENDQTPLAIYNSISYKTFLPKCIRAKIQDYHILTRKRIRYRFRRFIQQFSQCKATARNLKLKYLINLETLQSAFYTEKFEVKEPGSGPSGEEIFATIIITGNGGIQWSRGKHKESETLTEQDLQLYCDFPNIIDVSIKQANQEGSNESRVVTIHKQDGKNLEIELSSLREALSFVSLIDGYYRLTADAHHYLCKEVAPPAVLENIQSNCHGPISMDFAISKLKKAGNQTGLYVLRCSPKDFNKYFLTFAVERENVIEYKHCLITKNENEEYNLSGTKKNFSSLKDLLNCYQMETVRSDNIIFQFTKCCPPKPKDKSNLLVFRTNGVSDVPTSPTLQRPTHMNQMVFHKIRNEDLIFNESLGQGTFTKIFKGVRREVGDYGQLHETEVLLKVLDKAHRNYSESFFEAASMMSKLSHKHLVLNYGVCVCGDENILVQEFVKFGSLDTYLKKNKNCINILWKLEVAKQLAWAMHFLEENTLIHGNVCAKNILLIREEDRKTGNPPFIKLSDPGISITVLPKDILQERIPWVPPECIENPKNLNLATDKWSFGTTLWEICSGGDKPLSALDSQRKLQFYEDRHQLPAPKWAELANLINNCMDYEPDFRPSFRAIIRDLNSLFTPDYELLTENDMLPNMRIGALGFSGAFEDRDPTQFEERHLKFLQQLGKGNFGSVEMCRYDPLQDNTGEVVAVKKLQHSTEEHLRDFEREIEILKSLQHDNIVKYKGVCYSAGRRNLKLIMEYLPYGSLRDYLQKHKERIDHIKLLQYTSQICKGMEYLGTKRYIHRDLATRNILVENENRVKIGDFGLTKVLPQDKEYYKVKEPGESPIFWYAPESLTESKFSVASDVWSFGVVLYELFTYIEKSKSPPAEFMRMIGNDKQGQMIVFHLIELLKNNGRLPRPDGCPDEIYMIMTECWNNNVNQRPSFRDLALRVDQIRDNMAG
T2 sequence (P29597 whole entry): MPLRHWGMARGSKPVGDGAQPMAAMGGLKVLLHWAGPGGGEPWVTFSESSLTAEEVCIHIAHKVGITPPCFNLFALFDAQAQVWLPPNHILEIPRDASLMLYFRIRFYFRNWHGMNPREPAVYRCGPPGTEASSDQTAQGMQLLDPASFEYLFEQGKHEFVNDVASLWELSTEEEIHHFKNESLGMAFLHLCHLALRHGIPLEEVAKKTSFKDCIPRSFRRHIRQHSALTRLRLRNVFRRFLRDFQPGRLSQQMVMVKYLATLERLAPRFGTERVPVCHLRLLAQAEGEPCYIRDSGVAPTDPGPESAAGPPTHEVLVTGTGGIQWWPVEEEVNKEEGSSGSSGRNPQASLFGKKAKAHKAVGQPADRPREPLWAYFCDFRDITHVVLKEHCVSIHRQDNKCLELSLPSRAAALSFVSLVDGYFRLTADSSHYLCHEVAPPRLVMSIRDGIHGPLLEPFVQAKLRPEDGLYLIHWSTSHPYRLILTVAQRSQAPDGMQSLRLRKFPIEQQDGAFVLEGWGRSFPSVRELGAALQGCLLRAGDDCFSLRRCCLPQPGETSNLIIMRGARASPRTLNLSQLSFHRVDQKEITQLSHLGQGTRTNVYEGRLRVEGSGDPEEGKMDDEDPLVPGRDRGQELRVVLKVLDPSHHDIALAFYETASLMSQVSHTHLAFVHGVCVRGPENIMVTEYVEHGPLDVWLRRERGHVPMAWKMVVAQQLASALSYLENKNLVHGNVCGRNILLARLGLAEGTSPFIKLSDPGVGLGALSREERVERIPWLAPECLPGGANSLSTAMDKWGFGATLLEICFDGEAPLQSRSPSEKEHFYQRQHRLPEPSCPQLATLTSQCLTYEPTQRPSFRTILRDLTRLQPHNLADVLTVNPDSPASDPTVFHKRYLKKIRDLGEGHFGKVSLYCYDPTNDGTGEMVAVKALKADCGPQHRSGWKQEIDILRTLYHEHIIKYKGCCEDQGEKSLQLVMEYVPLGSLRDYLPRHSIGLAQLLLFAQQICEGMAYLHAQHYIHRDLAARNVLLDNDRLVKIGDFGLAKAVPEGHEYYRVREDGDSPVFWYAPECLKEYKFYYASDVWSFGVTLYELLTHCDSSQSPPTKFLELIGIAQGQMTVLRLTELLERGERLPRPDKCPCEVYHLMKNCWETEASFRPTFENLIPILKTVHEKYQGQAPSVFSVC
T3 sequence (P23458 whole entry): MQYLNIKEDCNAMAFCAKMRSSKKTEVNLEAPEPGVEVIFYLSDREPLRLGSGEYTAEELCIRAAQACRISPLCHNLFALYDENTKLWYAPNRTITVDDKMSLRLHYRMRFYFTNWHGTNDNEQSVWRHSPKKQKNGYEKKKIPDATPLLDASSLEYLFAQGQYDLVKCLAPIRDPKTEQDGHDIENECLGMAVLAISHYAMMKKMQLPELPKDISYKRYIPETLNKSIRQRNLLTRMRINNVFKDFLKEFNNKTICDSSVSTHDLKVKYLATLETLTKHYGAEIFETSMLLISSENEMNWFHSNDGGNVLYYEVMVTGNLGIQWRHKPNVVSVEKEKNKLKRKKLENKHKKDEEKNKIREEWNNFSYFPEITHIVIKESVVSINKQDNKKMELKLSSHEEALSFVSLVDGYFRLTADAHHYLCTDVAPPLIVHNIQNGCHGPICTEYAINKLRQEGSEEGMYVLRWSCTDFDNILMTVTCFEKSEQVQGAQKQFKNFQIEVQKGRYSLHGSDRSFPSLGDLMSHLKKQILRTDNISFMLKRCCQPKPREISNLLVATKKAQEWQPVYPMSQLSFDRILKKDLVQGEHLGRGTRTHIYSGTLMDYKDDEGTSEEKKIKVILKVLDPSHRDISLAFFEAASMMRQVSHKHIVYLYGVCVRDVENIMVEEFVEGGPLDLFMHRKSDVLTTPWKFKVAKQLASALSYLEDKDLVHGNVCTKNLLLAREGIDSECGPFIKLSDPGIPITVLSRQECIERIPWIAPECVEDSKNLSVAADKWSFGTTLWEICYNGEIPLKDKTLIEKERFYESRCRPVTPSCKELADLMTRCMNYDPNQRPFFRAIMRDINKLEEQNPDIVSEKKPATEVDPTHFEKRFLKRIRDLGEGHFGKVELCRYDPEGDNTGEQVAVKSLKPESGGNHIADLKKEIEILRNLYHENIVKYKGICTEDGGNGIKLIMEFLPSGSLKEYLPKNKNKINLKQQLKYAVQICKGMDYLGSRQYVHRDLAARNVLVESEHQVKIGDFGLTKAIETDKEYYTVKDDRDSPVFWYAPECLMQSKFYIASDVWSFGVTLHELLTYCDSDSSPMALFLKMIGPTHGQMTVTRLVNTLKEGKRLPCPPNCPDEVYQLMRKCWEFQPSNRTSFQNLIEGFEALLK

Structure (SMILES) | IC50 (Recombinant JAK3) [µM] | IC50 (Recombinant TYK2) [µM] | IC50 [1] [µM] | IC50 [2] [µM] | IC50 (Recombinant JAK1) [µM] | IC50 (Recombinant JAK2) [µM]
CN1CCN(CCC(c2ccc(-n3cc(-c4ccnc5[nH]cnc45)cn3)nc2)C(F)(F)F)CC1 (stereo not drawn) [Example 1219, 7-(1-(5-(1,1,1-trifluoro-4-(4-methylpiperazin-1-yl)butan-2-yl)pyridin-2-yl)-1H-pyrazol-4-yl)-3H-imidazo[4,5-b]pyridine] | < 0.1 | > 0.5 | > 0.75 | > 1 | < 0.1 | < 0.1
CC(NC(=O)Nc1ccc(-c2ccnc3[nH]c(=O)[nH]c23)cc1)C(F)(F)F (stereo not drawn) [Example 1002, 1-(1,1,1-trifluoropropan-2-yl)-3-(4-(2,3-dihydro-2-oxo-1H-imidazo[4,5-b]pyridin-7-yl)phenyl)urea] | < 0.5 | > 0.5 | > 10 | > 10 | < 0.5 | < 0.5
N#CC1CC(NC(=O)n2cc(-c3ccnc4[nH]c(=O)[nH]c34)cn2)C1 (stereo not drawn) [Example 1056, N-(3-cyanocyclobutyl)-4-(2,3-dihydro-2-oxo-1H-imidazo[4,5-b]pyridin-7-yl)-1H-Pyrazole-1-carboxamide] | < 0.5 | > 0.5 | > 10 | > 10 | < 0.5 | < 0.5
CC(CC#N)NC(=O)n1cc(-c2ccnc3[nH]c(=O)[nH]c23)cn1 (stereo not drawn) [Example 1046, N-(1-cyanopropan-2-yl)-4-(2,3-dihydro-2-oxo-1H-imidazo[4,5-b]pyridin-7-yl)-1H-pyrazole-1-carboxamide] | < 0.5 | < 0.5 | > 10 | > 10 | < 0.5 | < 0.5
N#CC1CN(C(=O)n2cc(-c3ccnc4[nH]c(=O)[nH]c34)cn2)C1 [Example 1048, 1-(4-(2-oxo-2,3-dihydro-1H-imidazo[4,5-b]pyridin-7-yl)-1H-pyrazole-1-carbonyl)azetidine-3-carbonitrile] | < 0.5 | < 0.5 | > 10 | > 10 | < 0.5 | < 0.5
NS(=O)(=O)CCC(c1ccc(-n2cc(-c3ccnc4[nH]cnc34)cn2)nc1)C(F)(F)F (stereo not drawn) [Example 1141, 3-(6-(4-(3H-imidazo[4,5-b]pyridin-7-yl)-1H-pyrazol-1-yl)pyridin-3-yl)-4,4,4-trifluorobutane-1-sulfonamide] | < 0.1 | > 1 | < 1 | > 10 | < 0.1 | < 0.1
N#CCc1coc(-n2cc(-c3ccnc4[nH]cnc34)cn2)n1 [Example 1075, 2-(2-(4-(3H-imidazo[4,5-b]pyridin-7-yl)-1H-pyrazol-1-yl)oxazol-4-yl)acetonitrile] | < 0.5 | > 1 | 3.1 | > 10 | 0.046 | 0.19
CC(NC(=O)n1cc(-c2ccnc3[nH]c(=O)[nH]c23)cn1)C(=O)N1CC(C#N)C1 (stereo not drawn) [Example 1058, N-(1-(3-cyanoazetidin-1-yl)-1-oxopropan-2-yl)-4-(2-oxo-2,3-dihydro-1H-imidazo[4,5-b]pyridin-7-yl)-1H-pyrazole-1-carboxamide] | > 10 | > 10 | > 10 | > 10 | > 1 | > 1
CS(=O)(=O)CC(c1ccc(-n2cc(-c3ccnc4[nH]cnc34)cn2)nc1)C(F)(F)F (stereo not drawn) [Example 1138, 7-(1-(5-(1,1,1-trifluoro-3-(methylsulfonyl)propan-2-yl)pyridin-2-yl)-1H-pyrazol-4-yl)-3H-imidazo[4,5-b]pyridine] | > 0.1 | > 1 | > 1 | > 10 | < 0.1 | > 0.1
CC(CN1CC(C#N)C1)NC(=O)n1cc(-c2ccnc3[nH]cnc23)cn1 (stereo not drawn) [Example 1068, N-(1-(3-cyanoazetidin-1-yl)propan-2-yl)-4-(3H-imidazo[4,5-b]pyridin-7-yl)-1H-pyrazole-1-carboxamide] | > 1 | > 1 | > 10 | > 10 | > 1 | > 1
N#CC(c1ccc(-n2cc(-c3ccnc4[nH]cnc34)cn2)cc1)C1CC1 (stereo not drawn) [Example 1100, 2-(4-(4-(3H-imidazo[4,5-b]pyridin-7-yl)-1H-pyrazol-1-yl)phenyl)-2-cyclopropylacetonitrile] | > 0.5 | > 10 | > 10 | > 10 | > 0.5 | > 0.5
CC(C#N)c1ccc(-n2cc(-c3ccnc4[nH]cnc34)cn2)nc1 (stereo not drawn) [Example 1107, 2-(6-(4-(3H-imidazo[4,5-b]pyridin-7-yl)-1H-pyrazol-1-yl)pyridin-3-yl)propanenitrile] | < 0.1 | > 1 | > 1 | > 10 | < 0.1 | > 0.1
N#CC1(c2ccc(-n3cc(-c4ccnc5[nH]cnc45)cn3)nc2)CC1 [Example 1109, 1-(6-(4-(3H-imidazo[4,5-b]pyridin-7-yl)-1H-pyrazol-1-yl)pyridin-3-yl)cyclopropanecarbonitrile] | < 0.5 | > 10 | > 1 | > 10 | < 0.5 | < 0.5
CS(=O)(=O)NC(c1ccc(-n2cc(-c3ccnc4[nH]cnc34)cn2)nc1)C(F)(F)F (stereo not drawn) [Example 1187] | < 0.1 | > 1 | > 1 | > 1 | < 0.1 | > 0.1
OC(c1ccc(-n2cc(-c3ccnc4[nH]cnc34)cn2)nc1)(C1CCNCC1)C(F)(F)F (stereo not drawn) [Example 1135, 1-(6-(4-(3H-imidazo[4,5-b]pyridin-7-yl)-1H-pyrazol-1-yl)pyridin-3-yl)-2,2,2-trifluoro-1-(piperidin-4-yl)ethan-1-ol] | < 0.1 | < 0.1 | > 1 | > 10 | < 0.1 | < 0.1
N#CC1CN(CCC(c2ccc(-n3cc(-c4ccnc5[nH]cnc45)cn3)nc2)C(F)(F)F)C1 (stereo not drawn) [Example 1202, 1-(3-(6-(4-(3H-imidazo[4,5-b]pyridin-7-yl)-1H-pyrazol-1-yl)pyridin-3-yl)-4,4,4-trifluorobutyl)azetidine-3-carbonitrile] | < 0.1 | > 0.5 | > 0.5 | > 1 | < 0.1 | > 0.1
CC(C)NC(=O)CCC(c1ccc(-n2cc(-c3ccnc4[nH]cnc34)cn2)nc1)C(F)(F)F (stereo not drawn) [Example 1210, 4-(6-(4-(3H-imidazo[4,5-b]pyridin-7-yl)-1H-pyrazol-1-yl)pyridin-3-yl)-5,5,5-trifluoro-N-isopropylpentanamide] | < 0.1 | > 1 | > 0.75 | > 1 | < 0.1 | < 0.1
N#CC1CCN(C(=O)n2cc(-c3ccnc4[nH]c(=O)[nH]c34)cn2)C1 (stereo not drawn) [Example 1055, 1-(4-(2-oxo-2,3-dihydro-1H-imidazo[4,5-b]pyridin-7-yl)-1H-pyrazole-1-carbonyl)pyrrolidine-3-carbonitrile] | > 1 | > 0.5 | > 10 | > 10 | > 1 | < 0.5
